Data: PMC8709388, “In Search of Small Molecules That Selectively Inhibit MBOAT4” (Molecules, 2021)
Read-outs that look alike come from different tables or passages of the source.

Columns and labels:
[1] = test system: acyl ghrelin secretion from INS-1 cells (INS/GOAT/GHRL cell line); test: INS-1 cellular assay: secreted acyl-ghrelin from INS/GOAT/GHRL cell line measured with ELISA; type: cell-based, mouse; conditions: for IC50: INS1, acyl-ghrelin secretion, read-out: in-house INS-1 IC50; for activity in cell culture (in words): acyl ghrelin secretion
Text: Generation of Recombinant Retrovirus for mGOAT Expression. The mouse GOAT cDNA with C-terminal HA tag was amplified from pcDNA3.1-mouseGOAT-HA vector (gift from Brown and Goldstein lab) using the following primers: mGOAT_attb1 (forward primer) 5′-[…]—3′(attb1 recombination site is in italics, 5′ of mGOAT coding sequence is in bold, and Kozak coding sequence is underlined) and mGOAT_attb2 (reverse primer) 5′-[…] -3′ (attb2 recombination site is in italics, 3′ of mGAOT-HA coding sequence is in bold, and stop codon is underlined). The PCR product was cloned into donor vector pDONR221 (ThermoFisher) with BP clonase according to manufacturer’s instructions. Positive clones were verified by DNA sequencing with M13F and M13R primers. The resulting entry plasmid pDONR221-mGOAT-HA was used to transfer mGOAT-HA cDNA to destination vector pBabe-puro (Addgene cat# 51070 [35]) using LR clonase according to manufacturer’s instructions. Positive clones were verified by DNA sequencing with pBABE-5 and pBABE-3 primers. The resulting plasmid, pBabe-puro-mGOAT-HA, was used to generate retrovirus. The retrovirus was packed in 293T PhoE (Phoenix-ECO AT0CC® CRL-3214™) cells and used to infect INS-1 cells. The stable INS/GOAT cells were selecting on 1 μg/mL puromycin and GOAT expression was confirmed with immunoblot of membrane fraction isolated from antibiotic resistant culture using anti-HA antibody.
Generation of Lentivirus for Expression of Ghrelin. The cDNA for mouse preproghrelin was subcloned from pcDNA3.1-preproghrelin (gift from Brown and Goldstein lab) into pULTRA vector (Addgene cat# 24129 [36]) with XbaI and BamHI restriction enzymes. Using of these restriction sites for cloning will result in the creation of bi-cistronic expression of ghrelin along with EGFP to facilitate identification of positive cells by fluorescence. The above restriction sites were engineered via PCR reaction using the following primers: ghrl_pultra_forw 5′-[…]-3′ (5′ of preproghrelin coding sequence is in bold; XbaI site is in italics) and ghrl_pultra_rev 5′-[…] -3′ (3′ of preproghrelin coding sequence is in bold, stop codon is underlined, and BamHI site is italics). The recombinant lentivirus encoding preproghrelin cDNA was packed in Lenti-X 293T cells (Takara cat# 632180) by co-transfection of pUltra-EGFP-mouse-preproghrelin, with packaging encoding plasmid pCMV ΔR8.2 (Addgene cat# 12263) and envelope encoding plasmid pCMV-VSV g (Addgene cat# 8454). The INS/GOAT cells were infected with recombinant lentivirus to generate INS/GOAT/GHRL cell line. After few passages, the population of cells with puromycin resistance and ~90% fluorescence was saved for cell-based assay.
Cellular assay. INS/GOAT/GHRL cell line was routinely cultured in RPMI medium supplemented with 10% FBS, 1% Pen/Strep, 10 mM HEPES pH 7.2 and 50 μM 2-mercaptoethanol. Day 0: One 10 cm dish at full confluency was used to seed one 96-well plate. Day 1: Growth media was removed and cells were washed with PBS prior to adding fresh growth media as above but without 2-mercaptoethanol. The serial dilutions of tested compound at 50× concentration were prepared in vehicle containing growth media without 2-mercaptoethnol supplemented with 6% DMSO and were added to cells in duplicates. Day 2: 10 μL of growth media were removed from each well and amount of secreted acyl-ghrelin was measured with ELISA (Cayman cat# 10006307).

GOAT = conditions: read-out: lit. IC50, cited from earlier work
ghrelin production = test system: ghrelin production; set-up: method as in earlier work; conditions: cited from earlier work

| IC50 [1] [nM] | Structure (SMILES) | activity in cell culture (in words) [1] | IC50 (GOAT; Boehringer Ingelheim compound) [nM] | potency of blocking ghrelin secretion from INS-1 cells relative to 5 [1] [fold] | IC50 (GOAT; Eli Lilly compound) [nM] | adverse side effects (ghrelin production; at doses that inhibited ghrelin production) | ghrelin production in vivo (ghrelin production) | oral bioavailability (ghrelin production) |
| --- | --- | --- | --- | --- | --- | --- | --- | --- |
| 540 | CNC(=O)c1cccc(Cc2c(C)nc3nonc3c2N)n1 [compound 6, reference compound] |  | 0.24 |  |  |  |  |  |
| 160 | Cc1nc2nonc2c(N)c1CCC1CCN(C(=O)[C@H](C)NC(=O)c2ccnn2C)CC1 [compound 11, (S)-N-(1-(4-(2-(7-amino-5-methyl-[1,2,5]oxadiazolo[3,4-b]pyridin-6-yl)ethyl)pip-eridin-1-yl)-1-oxopropan-2-yl)-1-methyl-1H-pyrazole-5-carboxamide] | most potent compound we have tested in our cellular assay |  | 4 |  |  |  |  |
| 670 | Cc1nc(Cl)nc(N)c1CCC1CCN(C(=O)[C@H](C)NC(=O)c2ccnn2C)CC1 [compound 5] |  |  |  | 57 | did not cause observable adverse side effects | inhibited ghrelin production in vivo | orally bioavailable |

| Structure (SMILES) | IC50 [1] [nM] | activity in cell culture (in words) [1] | IC50 (GOAT; Boehringer Ingelheim compound) [nM] | potency of blocking ghrelin secretion from INS-1 cells relative to 5 [1] [fold] | IC50 (GOAT; Eli Lilly compound) [nM] | adverse side effects (ghrelin production; at doses that inhibited ghrelin production) | ghrelin production in vivo (ghrelin production) | oral bioavailability (ghrelin production) |
| --- | --- | --- | --- | --- | --- | --- | --- | --- |
| CCCCOCC(=O)N1CCC(CCc2c(C)nc3nonc3c2N)CC1 [compound 10, 1-(4-(2-(7-amino-5-methyl-[1,2,5]oxadiazolo[3,4-b]pyridin-6-yl)ethyl)piperidin-1-yl)-2-butoxyethan-1-one] | > 6600 | much less active in cells |  |  |  |  |  |  |
